Results on 16 compounds are retold here after BindingDB's records for doi:10.1016/j.bmcl.2004.10.029 (Glaxosmithkline, 2005).

Assay [1] has as its target T1, Dimer of Gag-Pol polyprotein [501-599,Q508K,L534I,L564I,C568A,C596A] (Human immunodeficiency virus 1, UniProt P03367, C568A/C596A/L534I/L564I/Q508K).
T1 construct: 501-599
Put plainly: Protease Inhibition Assay. The conditions noted are these: pH 6.4; 25 °C. On the procedure: The Ki values were determined using fluorogenic substrate, 2-(aminobenzoyl)-Thr-Ile-Nle-Phe(p-NO2)-Gln-ArgNH2. A standard curve relating changes in fluorescent intensity to changes in concentration of product was used to convert fluorescent changes into molar velocities. The amount of cleavage was determined by HPLC.

In assay [2] the target is T1, Dimer of Gag-Pol polyprotein [501-599,Q508K,L534I,L564I,C568A,C596A]. In words: Protease Inhibition Assay. The conditions noted are these: pH 6.4; 25 °C. The source holds these as a separate data set.

In the case of `O=C(N[C@H]1c2ccccc2C[C@H]1O)[C@H](Cc1ccc(OCCOC(=O)N2CCOCC2)cc1)C[C@H](O)CN1C(=O)[C@@H](Cc2ccccc2)C[C@@H]1Cc1ccccc1` [2-{4-[(2R)-2-[(2S)-3-[(3S,5R)-3,5-dibenzyl-2-oxopyrrolidin-1-yl]-2-hydroxypropyl]-2-{[(1S,2R)-2-hydroxy-2,3-dihydro-1H-inden-1-yl]carbamoyl}ethyl]phenoxy}ethyl morpholine-4-carboxylate], the Ki – broadly, the equilibrium dissociation constant of an inhibitor or competing ligand from its target – in assay [1] is 0.05 nM. Moreover, the IC50 – broadly, the concentration at which inhibition is half-maximal – in assay [2] stood at 240 nM.
In the case of `O=C(N[C@H]1c2ccccc2C[C@H]1O)[C@H](Cc1ccc(Cc2ccccc2)cc1)C[C@H](O)CN1C(=O)[C@@H](Cc2ccccc2)C[C@@H]1Cc1ccccc1` [(2R,4S)-2-[(4-benzylphenyl)methyl]-5-[(3S,5R)-3,5-dibenzyl-2-oxopyrrolidin-1-yl]-4-hydroxy-N-[(1S,2R)-2-hydroxy-2,3-dihydro-1H-inden-1-yl]pentanamide], in assay [1], the Ki is 0.11 nM. The compound also gave an IC50 in assay [2] of 920 nM.
In turn, `O=C(N[C@H]1c2ccccc2C[C@H]1O)[C@H](Cc1ccccc1)C[C@H](O)CN1C(=O)[C@@H](Cc2ccccc2)C[C@@H]1Cc1ccc(Cc2ccccc2)cc1` [(2R,4S)-2-benzyl-5-[(3S,5R)-3-benzyl-5-[(4-benzylphenyl)methyl]-2-oxopyrrolidin-1-yl]-4-hydroxy-N-[(1S,2R)-2-hydroxy-2,3-dihydro-1H-inden-1-yl]pentanamide] gave a Ki in assay [1] of 0.13 nM. The compound further returned a half-maximal inhibitory concentration (IC50) in assay [2] of 550 nM.
`O=C(N[C@H]1c2ccccc2C[C@H]1O)[C@H](Cc1ccccc1)C[C@H](O)CN1C(=O)[C@@H](Cc2ccccc2)C[C@@H]1Cc1ccc(O)cc1` [(2R,4S)-2-benzyl-5-[(3S,5R)-3-benzyl-5-[(4-hydroxyphenyl)methyl]-2-oxopyrrolidin-1-yl]-4-hydroxy-N-[(1S,2R)-2-hydroxy-2,3-dihydro-1H-inden-1-yl]pentanamide]: in assay [2], the concentration for half-maximal inhibition (IC50) is 200 nM.
As to `O=C(N[C@H]1c2ccccc2C[C@H]1O)[C@H](Cc1ccccc1)C[C@H](O)CN1C(=O)[C@@H](Cc2ccccc2)C[C@@H]1Cc1ccc(OCCO)cc1` [(2R,4S)-2-benzyl-5-[(3S,5R)-3-benzyl-5-{[4-(2-hydroxyethoxy)phenyl]methyl}-2-oxopyrrolidin-1-yl]-4-hydroxy-N-[(1S,2R)-2-hydroxy-2,3-dihydro-1H-inden-1-yl]pentanamide], the Ki in assay [1] stood at 0.3 nM. This compound also had a concentration for half-maximal inhibition (IC50) in assay [2] of 480 nM.
Turning to `NC(=O)COc1ccc(C[C@H](C[C@H](O)CN2C(=O)[C@@H](Cc3ccccc3)C[C@@H]2Cc2ccccc2)C(=O)N[C@H]2c3ccccc3C[C@H]2O)cc1` [(2R,4S)-2-{[4-(carbamoylmethoxy)phenyl]methyl}-5-[(3S,5R)-3,5-dibenzyl-2-oxopyrrolidin-1-yl]-4-hydroxy-N-[(1S,2R)-2-hydroxy-2,3-dihydro-1H-inden-1-yl]pentanamide], the affinity in assay [1], expressed as Ki, was 0.07 nM. In addition, the half-inhibitory concentration (IC50) in assay [2] amounted to 360 nM.
For `COCCOCCOc1ccc(C[C@H](C[C@H](O)CN2C(=O)[C@@H](Cc3ccccc3)C[C@@H]2Cc2ccccc2)C(=O)N[C@H]2c3ccccc3C[C@H]2O)cc1` [(2R,4S)-5-[(3S,5R)-3,5-dibenzyl-2-oxopyrrolidin-1-yl]-4-hydroxy-N-[(1S,2R)-2-hydroxy-2,3-dihydro-1H-inden-1-yl]-2-({4-[2-(2-methoxyethoxy)ethoxy]phenyl}methyl)pentanamide], the affinity in assay [1], expressed as Ki, was 0.02 nM. This compound displayed an IC50 in assay [2] of 93 nM.
In assay [1], `CN1CCN(C(=O)COc2ccc(C[C@H](C[C@H](O)CN3C(=O)[C@@H](Cc4ccccc4)C[C@@H]3Cc3ccccc3)C(=O)N[C@H]3c4ccccc4C[C@H]3O)cc2)CC1` [(2R,4S)-5-[(3S,5R)-3,5-dibenzyl-2-oxopyrrolidin-1-yl]-4-hydroxy-N-[(1S,2R)-2-hydroxy-2,3-dihydro-1H-inden-1-yl]-2-({4-[2-(4-methylpiperazin-1-yl)-2-oxoethoxy]phenyl}methyl)pentanamide] yielded a Ki of 0.05 nM. This compound came in with an IC50 in assay [2] of 130 nM.
On to `O=C(N[C@H]1c2ccccc2C[C@H]1O)[C@H](Cc1ccc(OCC(=O)N2CCOCC2)cc1)C[C@H](O)CN1C(=O)[C@@H](Cc2ccccc2)C[C@@H]1Cc1ccccc1` [(2R,4S)-5-[(3S,5R)-3,5-dibenzyl-2-oxopyrrolidin-1-yl]-4-hydroxy-N-[(1S,2R)-2-hydroxy-2,3-dihydro-1H-inden-1-yl]-2-({4-[2-(morpholin-4-yl)-2-oxoethoxy]phenyl}methyl)pentanamide], for which the Ki in assay [1] amounted to 0.02 nM. Also, in assay [2], it took 63 nM to reach half-maximal inhibition (IC50).
Take `O=C(N[C@H]1c2ccccc2C[C@H]1O)[C@H](Cc1ccc(OCCN2CCOCC2)cc1)C[C@H](O)CN1C(=O)[C@@H](Cc2ccccc2)C[C@@H]1Cc1ccccc1` [(2R,4S)-5-[(3S,5R)-3,5-dibenzyl-2-oxopyrrolidin-1-yl]-4-hydroxy-N-[(1S,2R)-2-hydroxy-2,3-dihydro-1H-inden-1-yl]-2-({4-[2-(morpholin-4-yl)ethoxy]phenyl}methyl)pentanamide]: in assay [1], the affinity, expressed as Ki, was 0.14 nM. In addition, the IC50 in assay [2] was found to be 83 nM.
With `O=C(N[C@H]1c2ccccc2C[C@H]1O)[C@H](Cc1ccc(O)cc1)C[C@H](O)CN1C(=O)[C@@H](Cc2ccccc2)C[C@@H]1Cc1ccccc1` [(2R,4S)-5-[(3S,5R)-3,5-dibenzyl-2-oxopyrrolidin-1-yl]-4-hydroxy-N-[(1S,2R)-2-hydroxy-2,3-dihydro-1H-inden-1-yl]-2-[(4-hydroxyphenyl)methyl]pentanamide], in assay [1], the inhibitory constant (Ki) worked out at 0.06 nM. For the same compound, the IC50 in assay [2] is 320 nM.
The compound `O=C(N[C@H]1c2ccccc2C[C@H]1O)[C@H](Cc1ccc(OCCO)cc1)C[C@H](O)CN1C(=O)[C@@H](Cc2ccccc2)C[C@@H]1Cc1ccccc1` [(2R,4S)-5-[(3S,5R)-3,5-dibenzyl-2-oxopyrrolidin-1-yl]-4-hydroxy-N-[(1S,2R)-2-hydroxy-2,3-dihydro-1H-inden-1-yl]-2-{[4-(2-hydroxyethoxy)phenyl]methyl}pentanamide] showed an inhibitory constant (Ki) in assay [1] of 0.02 nM. Moreover, the IC50 in assay [2] came out at 94 nM.
The corresponding values for `O=C(N[C@H]1c2ccccc2C[C@H]1O)[C@H](Cc1ccc(OCc2ccccn2)cc1)C[C@H](O)CN1C(=O)[C@@H](Cc2ccccc2)C[C@@H]1Cc1ccccc1` [(2R,4S)-5-[(3S,5R)-3,5-dibenzyl-2-oxopyrrolidin-1-yl]-4-hydroxy-N-[(1S,2R)-2-hydroxy-2,3-dihydro-1H-inden-1-yl]-2-{[4-(pyridin-2-ylmethoxy)phenyl]methyl}pentanamide] are 0.07 nM and 380 nM.
In assay [1], `O=C(N[C@H]1c2ccccc2C[C@H]1O)[C@H](Cc1ccccc1)C[C@H](O)CN1C(=O)[C@@H](Cc2ccccc2)C[C@@H]1Cc1ccc(OCCN2CCOCC2)cc1` [pyrrolidinone based inhibitor 1g] came in with a Ki of 1.3 nM. This compound also came in with a 50% inhibitory concentration (IC50) in assay [2] of 960 nM.
For the compound `O=C(N[C@H]1c2ccccc2C[C@H]1O)[C@H](Cc1ccccc1)C[C@H](O)CN1C(=O)[C@@H](Cc2ccccc2)C[C@@H]1Cc1ccc(OCC(=O)N2CCOCC2)cc1` [pyrrolidinone based inhibitor 1k], in assay [1], the Ki was found to be 0.1 nM. Moreover, half-maximal inhibition in assay [2] (IC50) required 200 nM.
In turn, `O=C(N[C@H]1c2ccccc2C[C@H]1O)[C@H](Cc1ccccc1)C[C@H](O)CN1C(=O)[C@@H](Cc2ccccc2)C[C@@H]1Cc1ccccc1` [pyrrolidinone scaffold 8b] returned an IC50 in assay [2] of 0.05 nM.
